Columns and labels:
Lewis lung cancer cells = test: Cell culture of Lewis lung cancer cells: proliferation and apoptosis during hypoxia; type: cell-based
From the text: In subsequent cell culture experiments, we investigated whether this reduced tumor growth may also be related to a direct anti-proliferative effect of mecamylamine on the cancer cells. […] We also investigated the effects of increasing mecamylamine concentrations on the percentage of cells undergoing apoptosis during hypoxia using flow cytometry.

[1] = test system: Lewis lung carcinoma cells; test: Lewis lung tumor model, subcutaneous; type: in vivo, mice
Procedure: (§1) Lewis Lung Tumor Model. A total of 10^6 Lewis lung carcinoma cells (ATCC, Manassas, Va.) were cultured in RPMI 1640 supplemented with 10% FBS. Cancer cells were subcutaneously injected into each flank or orthotopically introduced into the lung parenchyma via a limited skin incision without thoracotomy of 10-week old C57BL/6J wild type mice. Animals received mecamylamine (3 mg/kg) or vehicle via osmotic mini pumps. Mice injected subcutaneously with tumor cells were checked on a daily basis for the presence of a palpable tumor and tumor growth was measured with a gauge. Tumor size was calculated as the product of length×width×0.5 cm^3. When mice in any group were bearing tumors>1.5 cm^3, the experiment was stopped and all animals sacrificed for histological evaluation. Tumor vessels were identified by infusion of space-filling fluorescent microspheres (0.2 μm; Molecular Probes) via the left ventricle of the heart.
(§2) The previous studies indicate that nAChR play an important role in angiogenesis in a broad spectrum of experimental conditions. To determine if mecamylamine could influence tumor angiogenesis, we used the in vivo Lewis lung cancer model. […] This late decrease in tumor growth in the mecamylamine group corresponded with a reduced vascularization of the tumor tissue. […] In another experiment, we orthotopically implanted Lewis lung cancer cells into the lung parenchyma. Larger tumors in the control group required discontinuation of the experiment after 17 days (tumor volume of 0.62 cm^3 (95% CI 0.37-0.85) versus 0.45 cm^3 (95% CI 0.28-0.66); P<0.001).

HMVECs and HUVECs = test: In vitro Matrigel assay (capillary network / tube formation); type: cell-based, human
Procedure: In Vitro Matrigel Assay. Human umbilical vein endothelial cells (HUVEC) and human microvascular endothelial cells (HMVEC; up to 5th passage; Bio Whittaker, Walkersville, Md.) were grown in EGM-MV supplemented with 5% FBS, 0.5 ml hEGF, 0.2 ml hydrocortisone, 2.0 ml BBE, and 0.5 ml GA-1000 (Bio Whittaker). Four-well chamber slides were coated with growth factor enhanced Matrigel (Becton Dickinson, Bedford, Mass.) and equilibrated with basal medium. Kureishi et al. (2000) Nat Med 6:1004-1010. Cells were seeded on top of the gel at a density of 10^3 cells/well in fresh basal medium containing 5% FBS. After two hours, increasing concentrations of mecamylamine (10^−12 to 10^−4 M; Sigma, St. Louis, Mont.) or vehicle were added to the medium. Development of tube formation in the center of each well was investigated at 24, 48, and 72 hours. We studied critical steps in angiogenesis, such as migration and differentiation, using an in vitro model of angiogenesis with ECs forming a network of capillary-like structures. After seeding the cells on growth factor-enriched matrigel, HMVECs and HUVECs, respectively, manifested tube formation within 48 hours in response to control medium.

CD34+/Flk-1+ cells = test: FACS of endothelial progenitor cells in hind limb ischemia model; type: in vivo, mice; details: systemic administration
Procedure: FACS. Fluorescence-activated cell sorting was used to identify the cellular population mobilized by ischemia and ischemia plus mecamylamine, respectively. At each time point (baseline, 3, 7, 14 days), blood was obtained from the right atrium. Bone marrow was isolated from bilateral femurs and tibias of each animal and incubated in HBSS (1% FCS) on ice. Peripheral blood and bone marrow cells were incubated with fluorescent-labeled antibodies and analyzed with a FACS-Vantage flow cytometer (Becton Dickinson, Franklin Lakes, N.J.). FITC-conjugated antibody against mouse CD34 and PE-conjugated antibody against mouse Flk-1 (BD PharMingen, San Diego, Calif.) were used as endothelial lineage markers. The analysis of CD34+ and Flk-1+ cells was performed after gating for monocyte size. Biotinylated antibodies against MAC-1 (BD PharMingen) conjugated to Avidin-Texas Red (BD PharMingen) were used as a monocyte/macrophage lineage marker after gating for monocyte cell size with the exclusion of granulocytes that were marked by Ly-6G GR-1 against mouse conjugated to APC (BD PharMingen). […] Data were analyzed using FloJo software (Becton Dickinson).
Table 1 presents the data, expressed as percentage of endothelial progenitor cells in bone marrow (BM) and peripheral blood (PB) before and after ligation of the femoral artery in the murine model of hind limb ischemia.

C57BL/6J mice [2] = test: Disc angiogenesis system; type: in vivo; details: for crosssectional area of the disc covered with new vessels (neovascularization of the disc): systemic treatment via osmotic minipumps, median, control 54.9%
Procedure: Disc Angiogenesis System. A disc of polyvinyl alcohol sponge (Rippey, El Dorado Hills, Calif.), covered with nitrocellulose cell-impermeable filters (Millipore, Burlington, Mass.), allows capillaries to grow only through the rim of the disc. The randomized treatment for the 2-week study period was delivered via osmotic minipumps (0.25 μl/hr; Durect, Cupertino, Calif.). Those discs were subcutaneously implanted in the back of 10-week old C57BL/6J mice or in some experiments in the back of α7-nAChR-deficient (B6.129S7-Chrna7^trn1Bay) mice (n=6 per group; Jackson, Bar Harbor, Me.). Two weeks later, mice were anesthetized and infused with space-filling fluorescent microspheres (0.2 μm, Molecular Probes, Eugene, Oreg.) through the left ventricle of the heart. Both the area of the disc covered with perfused vessels and the vessel density were quantified. Heeschen et al. (2001) Nat Med 7:833-837; and Jang et al. (2000) Circulation 102:1414-1419 (3, 10) The α7-nAChR in growing vessels were identified by immunohistochemistry (Santa Cruz Biotechnology, Santa Cruz, Calif.). To verify the specificity of the staining, discs explanted from homozygous α7-nAChR^−/− mice were used as a negative control.
To determine if the nAChR are involved in the native angiogenesic response in vivo, we used the disc angiogenesis system. In the control group, 54.9% (95% CI 46.1-63.6) of the crosssectional area of the disc was covered with new vessels when the disc was removed three weeks after subcutaneous implantation. FIG. 1.

C57BL/6J mice [3] = test: Murine model of hind limb ischemia; type: in vivo; details: for median diameter of collateral vessels / number of collateral vessels: ischemic limb; for median diameter of collateral vessels: control 0.12 mm; for number of collateral vessels: control 7.5
Procedure: Murine Model of Hind Limb Ischemia. In 10-week old C57BL/6J mice, the distal end of the external iliac artery and the deep and superficial femoral artery were ligated (n=8 animals per group). Mecamylamine was administered for three weeks by daily intramuscular injection. Serum VEGF levels were determined with a mouse VEGF ELISA kit (R&D System, Minneapolis, Minn.). Capillary density was determined in the adductor and semimembranous muscles. In 10 μm cryostat sections, cut transverse to the mid-belly of the muscle, capillaries were identified by monoclonal antibodies against CD31 (BD PharMingen, San Diego, Calif.) and myocytes were counterstained with eosin (Sigma). Capillary density for each section was determined in ten randomly selected fields and is expressed as a ratio of capillaries to myocytes.
To determine if nAChR play an important role in the setting of angiogenesis in response to ischemia, we employed the murine model of hind limb ischemia. After unilateral ligation of the superficial and deep femoral artery, we administered mecamylamine or vehicle by intramuscular injections into the ischemic hind limb on a daily basis for a period of three weeks. Animals (each group n=8) received 0, 0.05, or 0.5 μg/kg of mecamylamine. […] We achieved similar results when we administered mecamylamine systemically via osmotic minipumps (5.0 μg/kg; 0.24 (95% CI 0.19-0.28); P<0.001).
Accordingly, we identified collaterals by double staining for CD31 (ECs) and α-actin (SMCs) using confocal microscopy. The number of collaterals was quantified on cross-sections by identifying vascular lumen lined by CD31-positive endothelium, that were coated by an actin-positive vascular smooth muscle wall, with vessel diameters of at least 0.02 mm.

[4] = test system: Lewis lung carcinoma cells; test: Lewis lung tumor model, orthotopic implantation into lung parenchyma; type: in vivo, mice
Procedure: as §1, §2

For CNC1(C)C2CCC(C2)C1(C)C (stereo not shown) [mecamylamine], the “cells positive for Annexin V” value (Lewis lung cancer cells; 10^−6 M during hypoxia, control 13%) was 12%, the “percentage of cells undergoing apoptosis during hypoxia” value (Lewis lung cancer cells; increasing concentrations, flow cytometry, versus control group) was “no difference was observed” and the “number of Lewis lung cancer cells (direct anti-proliferative effect)” value (Lewis lung cancer cells; up to 48 hours of treatment) was “did not observe a significant change”. For the same compound, the “tumor growth (tumor size)” value ([1]; 21-day follow-up, control 1.21) was 0.85 cm^3, the “advanced tumor growth (FIG. 5)” value ([1]; Lewis Lung tumor model) was “significantly less tumor growth” and the “capillary density of tumor tissue” value ([1]; subcutaneous tumor, control 0.82) was 0.56 capillaries/mm^2. The “reversibility of effect on network formation” value (HMVECs and HUVECs; 10^−6 M, treatment stopped after 36 hours, network-like structures at 72 hours) was “reversible”, the “network formation (tube formation)” value (HMVECs and HUVECs; medium supplemented with 10^−4 to 10^−12 M, growth factor-enriched matrigel) was “network formation was inhibited” and the “number of CD34+/Flk-1+ cells in the bone marrow” value (CD34+/Flk-1+ cells) was “reduced the number of CD34^+/Flk-1^+ cells in the bone marrow”. For the same compound, the “angiogenesis in vivo (FIG. 1)” value (C57BL/6J mice [2]; disc angiogenesis system) was “inhibits angiogenesis in vivo”, the “crosssectional area of the disc covered with new vessels (neovascularization of the disc)” value (C57BL/6J mice [2]) was 14.3% and the “capillary density (angiogenic response)” value (C57BL/6J mice [3]; 0.5 μg/kg daily intramuscular injection into ischemic hind limb, 3 weeks, control 0.45) was 0.26 capillaries/myocyte. For the same compound, the “median diameter of collateral vessels” value (C57BL/6J mice [3]; high dose) was 0.07 mm, the “number of collateral vessels” value (C57BL/6J mice [3]; high dose) was 6.2 and the “median diameter of collateral vessels” value (C57BL/6J mice [3]; low dose) was 0.09 mm. For the same compound, the “number of collateral vessels” value (C57BL/6J mice [3]; low dose) was 7.1, the “capillary density compared to control (FIG. 3)” value (C57BL/6J mice [3]; murine model of hind limb ischemia) was “decreased capillary density in a dose-dependent fashion” and the “capillary density (angiogenic response)” value (C57BL/6J mice [3]; systemically via osmotic minipumps, 5.0 μg/kg) was 0.24 capillaries/myocyte. For the same compound, the “systemic levels of VEGF” value ([4]; Lewis lung cancer model, control 152.2) was 78.7 pg/mL, the tumor volume ([4]; orthotopic, after 17 days, control 0.62) was 0.45 cm^3 and the tumor vascularization ([4]; orthotopic, control 1.56) was 0.98 capillaries/mm^2.
In the case of C[N+](C)(C)CCCCCC[N+](C)(C)C [hexamethonium], the “crosssectional area of the disc covered with new vessels (neovascularization of the disc)” value (C57BL/6J mice [2]) is reported as 11.5%.

— patent publication US7652038B2, “Methods of reducing angiogenesis” (The Board of Trustees of the Leland Stanford Jr. University, priority 2002, dated 2010)
